The values below come from patent publication US7507817B2, “Prostaglandin prodrugs” (Allergan, Inc., priority 2006, dated 2009).

Common to all, as to format: in vivo
The subject of data set [1] is laser-induced hypertensive monkeys. As to the kind of experiment: IOP decrease in laser-induced hypertensive monkeys. The settings on record: one single day dose. As for the experimental part:
(§1) (Z)-7-[(1R,2S,3R,5R)-5-Chloro-2-(3,5-dichloro-phenoxymethyl)-3-hydroxy-cyclopentyl]-hept-5-enoic acid 2-hydroxy-ethyl ester (1) was tested in normotensive dogs at 0.1%, dosing once daily for 5 days. The maximum intraocular pressure (IOP) decrease from baseline was 6.6 mmHg (40%) at 78 h; the maximum ocular surface hyperemia (OSH) score was 0.9 at 50 h. This compound was also tested in laser-induced hypertensive monkeys, using one single day dose. At 0.1%, the maximum IOP decrease from baseline was 12.5 mmHg (33%) at […]
(§2) (Z)-7-[(1R,2S,3R,5R)-5-Chloro-2-(3,5-dichloro-phenoxymethyl)-3-hydroxy-cyclopentyl]-hept-5-enoic acid 2-morpholin-4-yl-ethyl ester (2) was tested in normotensive dogs at 0.1%, dosing once daily for 5 days. The maximum intraocular pressure (IOP) decrease from baseline was 5.1 mmHg (34%) at 78 h; the maximum ocular surface hyperemia (OSH) score was 0.9 at 30 h. This compound was also tested in laser-induced hypertensive monkeys, using one single day dose. At 0.1%, the maximum IOP decrease from baseline was 11.9 mmHg (32%) at 6 h.
(§3) (Z)-7-[(1R,2S,3R,5R)-5-Chloro-2-(3,5-dichloro-phenoxymethyl)-3-hydroxy-cyclopentyl]-hept-5-enoic acid was tested at multiple concentrations in normotensive dogs, dosing once daily for 5 days. At 0.05%, the maximum IOP decrease from baseline was 4.3 mmHg (30%) at 6 h; the maximum OSH score was 0.6 at 6 h. At 0.1%, the maximum IOP decrease from baseline was 4.8 mmHg (34%) at 102 h; the maximum OSH score was 1.3 at 6 h. This compound was also tested in laser-induced hypertensive monkeys, using one single day dose. At 0.1%, the maximum IOP decrease from baseline was 6 mmHg (19%) at 6 h.
(§4) (Z)-7-[(1R,2S,3R,5R)-5-Chloro-2-(3,5-dichloro-phenoxymethyl)-3-hydroxy-cyclopentyl]-hept-5-enoic acid isopropyl ester was tested at multiple concentrations in normotensive dogs, dosing once daily for 5 days. At 0.01%, the maximum intraocular pressure (IOP) decrease from baseline was 1.1 mmHg (7%) at 2 h; the maximum ocular surface hyperemia (OSH) score was 0.6 at 74 h. At 0.05%, the maximum intraocular pressure (IOP) decrease from baseline was 2.8 mmHg (18%) at 6 h; the maximum ocular surface hyperemia (OSH) score was 0.6 at 74 h. This compound was also tested in laser-induced hypertensive monkeys, using one single day dose. At 0.01%, the maximum IOP decrease from baseline was 6.8 mmHg (18%) at 6 h. At 0.05%, the maximum IOP decrease from baseline was 6 mmHg (16%) at 2 h.

Data set [2] has as its system normotensive dogs. The experiment in a line: Ocular surface hyperemia (OSH) score in normotensive dogs. The settings on record: once daily for 5 days; for maximum OSH score: maximum at 6 h. Here is the method:
as §1, §2, §3, §4

Data set [3] has as its system normotensive dogs. The experiment in a line: Intraocular pressure (IOP) decrease in normotensive dogs. As to conditions: once daily for 5 days. Here is the method: as §1, §2, §3, §4

With `CC(C)OC(=O)CCC/C=C\C[C@@H]1[C@@H](COc2cc(Cl)cc(Cl)c2)[C@H](O)C[C@H]1Cl` [(Z)-7-[(1R,2S,3R,5R)-5-Chloro-2-(3,5-dichloro-phenoxymethyl)-3-hydroxy-cyclopentyl]-hept-5-enoic acid isopropyl ester], the “maximum IOP decrease from baseline” value in data set [1] (0.01%, maximum at 6 h) is on record as 6.8 mmHg; in data set [1] (0.05%, maximum at 2 h) it was 6 mmHg; in the data set with normotensive dogs [3] (0.05%, maximum at 6 h) it was 2.8 mmHg. The “maximum IOP decrease from baseline (percent)” value is given as 18% in data set [1] (0.01%, maximum at 6 h); 16% in data set [1] (0.05%, maximum at 2 h); 18% with normotensive dogs [3] (0.05%, maximum at 6 h). In addition, the “maximum ocular surface hyperemia (OSH) score” value is reported as 0.6 in the data set with normotensive dogs [2] (0.01%, maximum at 74 h) and 0.6 in the data set on normotensive dogs [2] (0.05%, maximum at 74 h). In the data set on normotensive dogs [3] (0.01%, maximum at 2 h), the “maximum intraocular pressure (IOP) decrease from baseline” value came out at 1.1 mmHg. Further, in the data set on normotensive dogs [3] (0.01%, maximum at 2 h), the “maximum intraocular pressure (IOP) decrease from baseline (percent)” value was found to be 7%.

`O=C(O)CCC/C=C\C[C@@H]1[C@@H](COc2cc(Cl)cc(Cl)c2)[C@H](O)C[C@H]1Cl` [(Z)-7-[(1R,2S,3R,5R)-5-Chloro-2-(3,5-dichloro-phenoxymethyl)-3-hydroxy-cyclopentyl]-hept-5-enoic acid]: the “maximum IOP decrease from baseline” value in data set [1] (0.1%, maximum at 6 h) turned out to be 6 mmHg; in the data set on normotensive dogs [3] (0.05%, maximum at 6 h), 4.3 mmHg; with normotensive dogs [3] (0.1%, maximum at 102 h), 4.8 mmHg. For the same compound, the “maximum IOP decrease from baseline (percent)” value is 19% in data set [1] (0.1%, maximum at 6 h); 30% with normotensive dogs [3] (0.05%, maximum at 6 h); 34% in the data set with normotensive dogs [3] (0.1%, maximum at 102 h). Further, the results for the “maximum OSH score” value with normotensive dogs [2] (0.05%) and in the data set with normotensive dogs [2] (0.1%) were 0.6 and 1.3, respectively.

With `O=C(CCC/C=C\C[C@@H]1[C@@H](COc2cc(Cl)cc(Cl)c2)[C@H](O)C[C@H]1Cl)OCCO` [Compound 1, (Z)-7-[(1R,2S,3R,5R)-5-Chloro-2-(3,5-dichloro-phenoxymethyl)-3-hydroxy-cyclopentyl]-hept-5-enoic acid 2-hydroxy-ethyl ester], in data set [1] (0.1%, maximum at 4), the “maximum IOP decrease from baseline” value came to 12.5 mmHg and the “maximum IOP decrease from baseline (percent)” value was determined as 33%. Besides, in the data set with normotensive dogs [2] (0.1%, maximum at 50 h), the “maximum ocular surface hyperemia (OSH) score” value stood at 0.9. Moreover, in the data set on normotensive dogs [3] (0.1%, maximum at 78 h), the “maximum intraocular pressure (IOP) decrease from baseline” value is 6.6 mmHg and the “maximum intraocular pressure (IOP) decrease from baseline (percent)” value is 40%.

Take `O=C(CCC/C=C\C[C@@H]1[C@@H](COc2cc(Cl)cc(Cl)c2)[C@H](O)C[C@H]1Cl)OCCN1CCOCC1` [Compound 2, (Z)-7-[(1R,2S,3R,5R)-5-Chloro-2-(3,5-dichloro-phenoxymethyl)-3-hydroxy-cyclopentyl]-hept-5-enoic acid 2-morpholin-4-yl-ethyl ester]: in data set [1] (0.1%, maximum at 6 h), the “maximum IOP decrease from baseline” value came out at 11.9 mmHg and the “maximum IOP decrease from baseline (percent)” value is on record as 32%. In addition, in the data set with normotensive dogs [2] (0.1%, maximum at 30 h), the “maximum ocular surface hyperemia (OSH) score” value is recorded as 0.9. In the data set with normotensive dogs [3] (0.1%, maximum at 78 h), the “maximum intraocular pressure (IOP) decrease from baseline” value turned out to be 5.1 mmHg and the “maximum intraocular pressure (IOP) decrease from baseline (percent)” value is reported as 34%.
